This is an account of results in patent publication US20230313313A1, “BIOMARKERS FOR CANCER THERAPY USING MDM2 ANTAGONISTS” (OTSUKA PHARMACEUTICAL CO., LTD., priority 2020, published 2023).

Each structure is given as a SMILES string. “Also recorded” adds a separate entry of the source.

Data set [1] deals with MV4-11 cells. Briefly: Alamar Blue proliferation assay, MV4-11 overexpressing SKP2 vs control. Type of data set: cell-based, human. The settings on record: MV4-11 SKP2 OE compared to control. As to the method: Precision LentiORF Transduction:
Precision LentiORF Lentiviral Transduction Particles (Cat. OHS5900-224629438, Dharmacon, UK) were used to overexpress SKP2 in the MV4-11 AML cell line. Stable gene overexpression was established by cellular resistance to blasticidin (5 μg/ml) and was confirmed at the protein level by western blot. The Precision LentiORF control empty vector (Dharmacon, UK) served as a negative control.
The number of viable cells was determined by Alamar Blue assay (Bio-Rad, Irvine, CA, USA). All cell lines were grown and assayed in RPMI-1640+10% FBS medium.
Compounds were diluted first in DMSO and then into serum-free medium, before addition to triplicate wells of the cultured cells to give a 0.1% DMSO final concentration. […] Twenty μl of Alamar Blue™ (AbD Serotec/Bio-Rad) was added to each well and plates were then incubated for 4-6 h at 37° C. in an atmosphere of 5% CO2 and air. Plates were then read at 535 nm (excitation) and 590 nm (emission) on a SpectraMax Gemini reader (Molecular Devices, San Jose, CA, USA).
For orientation: The colour change of resazurin is a common sign of viable cells or microbes.

Data set [2] concerns OCI-AML3 cells. Briefly: Induction of apoptosis by cleaved caspase-3 cytometry, combination with IAP antagonist. In kind it is cell-based, human. The conditions noted are these: 0.1 μM Compound 1 with 1 μM ASTX660 and 1 ng/ml TNF-alpha, 72 h.
Description: Cleaved caspase-3 staining was recorded in the FL1 (green) channel, with unstained and DMSO control wells being used to set the gated stained and unstained cell populations—allowing the percentage of cells that are apoptotic to be calculated.
Data set [3] deals with SN40R2. Briefly: Protocol A: SN40R2 growth inhibition, sulphorhodamine B (SRB) method. The settings on record: 72 h, read-out: SN40R2 IC50 (Protocol A). (Sulforhodamine B stains cellular protein and so reports cell mass.)
Description: Following incubation with the SRB dye at room temperature for 30 min, the plates were washed with 1% acetic acid and left to dry. […] The GI50 was calculated by non-linear regression analysis of the data using Prism v4.0 statistical software.
Data set [4] has as its system multiple myeloma (MM) cells. The settings on record: in vitro and ex vivo; cited from earlier work.
The subject of data set [5] is human leukaemia models. The conditions noted are these: by inducing MDM2 degradation; cited from earlier work.
In data set [6] the test system is cancer cell lines. The settings on record: cited from earlier work.
Data set [7] has as its system tumour growth. The conditions noted are these: inducing mitochondrial effects of p53; cited from earlier work.

On to `CC1(C)CCC(CN2CCN(c3ccc(C(=O)NS(=O)(=O)c4ccc(NCC5CCOCC5)c([N+](=O)[O-])c4)c(Oc4cnc5[nH]ccc5c4)c3)CC2)=C(c2ccc(Cl)cc2)C1` [ABT-199, reference compound], for which the “effect of SKP2 overexpression on cytotoxicity / sensitivity” value in data set [1] was “does not modulate sensitivity; also recorded: no difference”.

Turning to `C[C@@H]1CN(CC(=O)N2CC(C)(C)c3nc(CO)c(Cc4ccc(F)cc4)cc32)[C@@H](CN2CCOC[C@H]2C)CN1` [ASTX660, 1-{6-[(4-fluorophenyl)methyl]-5-(hydroxymethyl)-3,3-dimethyl-1H,2H,3H-pyrrolo[3,2-b]pyridin-1-yl}-2-[(2R,5R)-5-methyl-2-{[(3R)-3-methylmorpholin-4-yl]methyl}piperazin-1-yl]ethan-1-one, reference compound], the “level of apoptosis (cleaved caspase-3), combination” value in data set [2] is recorded as “sensitises”.

Usually IC50 stands for the concentration that inhibits the measured activity by half. As for `CC(C)(O)c1ccc2c(c1)C(=O)N(Cc1ccc(Cl)cc1)[C@@]2(OCC1(CO)CC1)c1ccc(Cl)cc1` [Example 1, (3R)-3-(4-chlorophenyl)-2-[(4-chlorophenyl)methyl]-3-{[1-(hydroxymethyl)cyclopropyl]methoxy}-6-(2-hydroxypropan-2-yl)-2,3-dihydro-1H-isoindol-1-one], the IC50 in data set [3] was determined as 7.5 µM.

In the case of `CC(C)(O)c1cc(F)c2c(c1)C(=O)N(Cc1ccc(Cl)cc1)[C@@]2(OCC1(CO)CC1)c1ccc(Cl)cc1` [Example 2, (3R)-3-(4-chlorophenyl)-2-[(4-chlorophenyl)methyl]-4-fluoro-3-{[1-(hydroxymethyl)cyclopropyl]methoxy}-6-(2-hydroxypropan-2-yl)-2,3-dihydro-1H-isoindol-1-one], the IC50 in data set [3] was 17 µM.

Consider `CC(O)(CN1CCNCC1)c1cc(F)c2c(c1)C(=O)N(Cc1ccc(Cl)cc1S(C)(=O)=O)[C@@]2(OCC1(CO)CC1)c1ccc(Cl)cc1` (stereo partly drawn) [Example 43, (3R)-2-[(4-chloro-2-methanesulfonylphenyl)methyl]-3-(4-chlorophenyl)-4-fluoro-6-[2-hydroxy-1-(piperazin-1-yl)propan-2-yl]-3-{[1-(hydroxymethyl)cyclopropyl]methoxy}-2,3-dihydro-1H-isoindol-1-one], for which, in data set [3], the IC50 was found to be 2 µM.

`c1ccc2c(CCNc3ccc(Nc4ccncc4)cc3)c[nH]c2c1` [JNJ 26854165]: the “activity against multiple myeloma (MM) cells” value in data set [4] is “potent activity”.

As to `O=C(O)C(F)(F)F.O=C1CCC(N2Cc3c(C#CCCCNC(=O)c4ccc(NC(=O)[C@@H]5NC6(CCCCC6)[C@@]6(C(=O)Nc7cc(Cl)ccc76)[C@H]5c5ccnc(Cl)c5F)cc4)cccc3C2=O)C(=O)N1` (stereo partly drawn) [LE-004], the “growth of human leukaemia models in mice” value in data set [5] is “efficiently inhibited growth”.

`CC(C)(C)C[C@@H]1N[C@@H](C(=O)N[C@H]2CC[C@H](O)CC2)[C@H](c2cccc(Cl)c2F)[C@]12C(=O)Nc1cc(Cl)ccc12` [MI-773]: the “cell growth in cancer cell lines” value in data set [6] is recorded as “potently inhibits cell growth”.

Turning to `COC1CC(C(N)=O)CCC1NC(=O)[C@@H]1N[C@@H](CC(C)(C)C)[C@@]2(C(=O)Nc3cc(Cl)ccc32)[C@H]1c1cccc(Cl)c1F` (stereo partly drawn) [RO-8994], the tumour growth entry in data set [7] is reported as “inhibit tumour growth”.
